Columns and labels:
[1] = system: HMOX1; assay: RT-qPCR of HMOX1 expression in HT-1080 cells; type: cell-based; settings: for effect of ferrostatin-1 on the substance's induction of HMOX1: HT-1080, sodium arsenite 80 μM, hemin 5 μM, RSL3 1 μM, with or without 1 μM ferrostatin-1, four hours, normalized to DMSO; for expression of HMOX1 relative to ACTB, absence of ferrostatin-1: HT-1080, 1 μM, four hours
Protocol: (§1) To confirm HMOX1 induction by the GPX4 inhibitors, an RT-qPCR assay was performed using three ferroptosis sensitive cancer cell lines: the fibrosarcoma cell line HT-1080, a Ewing's sarcoma cell line A673, and a renal clear cell carcinoma cell line 786-O. Briefly, cells were exposed to 1 μM ML162 or 1 μM RSL3 for 4 hours, RNA was isolated and an RT-qPCR assay was performed.
To further validate induction of HMOX1 mRNA expression by GPX4 inhibition, RT-qPCR was performed using varying doses of the RSL3 inhibitor. Briefly, HT-1080 cells were exposed to 5 μM RSL3, 1 μM RSL3, and 0.2 μM RSL3 for four hours, RNA was isolated and an RT-qPCR assay was performed to quantify HMOX1 expression. DMSO was used as a control exposure.
(§2) Briefly, HT-1080, A673, and 786-O cells were exposed to 1 μM ML162 or 1 μM RLS3 with or without 1 μM ferrostatin-1 for four hours, RNA was isolated and an RT-qPCR assay was performed to quantify HMOX1 expression. DMSO was used as a control exposure.
Sodium arsenite and hemin are known to be inducers of general oxidative stress in cells. Briefly, HT-1080 cells were exposed to sodium arsenite (80 μM), hemin (5 μM), ML162 (1 μM), or RSL3 (1 μM) with or without 1 μM ferrostatin-1 for four hours, RNA was isolated and an RT-qPCR assay was performed to quantify HMOX1 expression. DMSO was used as a control exposure.

[2] = system: HMOX1; assay: RT-qPCR of HMOX1 expression in A673 cells; type: cell-based; settings: A673, 1 μM, four hours
Protocol: as §1, §2

[3] = system: HMOX1; assay: RT-qPCR of HMOX1 expression in 786-O cells; type: cell-based; settings: 1 μM, four hours
Protocol: as §1, §2

[4] = system: HMOX1; assay: nascent RNA sequencing of HT-1080 cells exposed to GPX4 inhibitors; type: cell-based; settings: HT-1080, 1 μM, 1 hour, Pval<10^−2
Protocol: (§3) To assess the transcriptional response of a cell to inhibition of GPX4, we exposed two cell lines to two different chemical inhibitors of GPX4 (ML162 and RSL3; available from Sigma Aldrich and Apex Bio respectively) and examined the transcriptional responses using a nascent RNA sequencing protocol. Briefly, a fibrosarcoma cell line HT-1080 and a lung fibroblast cell line IMR90 were exposed to 1 μM ML162 or 1 μM RSL3 for 1 hour and the nascent RNA sequencing protocol was performed.

[5] = system: HMOX1; assay: nascent RNA sequencing of IMR90 cells exposed to GPX4 inhibitors; type: cell-based; settings: IMR90, 1 μM, 1 hour, Pval 10^−3
Protocol: as §3

[6] = system: HMOX1; assay: RT-qPCR of HMOX1, ferrostatin-1 rescue of GPX4 inhibitor-mediated induction in HT-1080, A673 and 786-O cells; type: cell-based; settings: HT-1080, A673, 786-O; 1 μM ferrostatin-1 with 1 μM ML162 or RSL3, four hours
Protocol: as §2

[7] = system: HT-1080, A673, and 786-O cells lines; settings: ferrostatin-1 added to the culture media; HT-1080, A673, 786-O; cited from earlier work

In the case of hemin, the “effect of ferrostatin-1 on the substance's induction of HMOX1” value [1] is reported as “not affected by the presence of ferrostatin-1”.
With O=[As]O [sodium arsenite] the “effect of ferrostatin-1 on the substance's induction of HMOX1” value [1] was “not affected by the presence of ferrostatin-1”.
With COc1ccc(N(C(=O)CCl)C(C(=O)NCCc2ccccc2)c2cccs2)cc1Cl (centres unmarked) [ML162] the “expression of HMOX1 relative to ACTB, absence of ferrostatin-1” value [2] was “HMOX1 expression was observed in all three cell lines”, the “expression of HMOX1 relative to ACTB, absence of ferrostatin-1” value [3] was “HMOX1 expression was observed in all three cell lines” and the “differential expression of HMOX1 (nascent RNA sequencing)” value (from here on “differential expression of HMOX1”) [4] was “strongly differentially expressed”. For the same molecule, the “differential expression of HMOX1” value [5] was “strongly differentially expressed”, the “expression of HMOX1 relative to ACTB, presence of ferrostatin-1” value ([1]; HT-1080, 1 μM inhibitor with 1 μM ferrostatin-1, four hours) was “induced HMOX1 even in the presence of ferrostatin-1” and the “expression of HMOX1 relative to ACTB, absence of ferrostatin-1” value [1] was “HMOX1 expression was observed in all three cell lines”.
For CCOC(=O)c1ccc(NC2CCCCC2)c(N)c1 [ferrostatin-1], the “effect of ferrostatin-1 on induction of HMOX1 by RSL3 and ML162” value [6] is listed as “sufficient to prevent induction of HMOX1 in most conditions” and the “cellular viability of cells treated with small molecules that induce lipid peroxidation (e.g., GPX4 inhibitors)” value [7] is listed as “rescues cellular viability”.
With COC(=O)c1ccc([C@@H]2c3[nH]c4ccccc4c3C[C@@H](C(=O)OC)N2C(=O)CCl)cc1 [RSL3] the “expression of HMOX1 relative to ACTB, absence of ferrostatin-1” value [2] was “HMOX1 expression was observed in all three cell lines”, the “expression of HMOX1 relative to ACTB, absence of ferrostatin-1” value [3] was “HMOX1 expression was observed in all three cell lines” and the “differential expression of HMOX1” value [4] was “strongly differentially expressed”. The “differential expression of HMOX1” value [5] was “strongly differentially expressed”, the “expression of HMOX1 relative to ACTB, absence of ferrostatin-1” value [1] was “HMOX1 expression was observed in all three cell lines” and the “dose dependence of HMOX1 expression relative to ACTB” value ([1]; HT-1080, 5 μM, 1 μM and 0.2 μM RSL3, four hours) was “proportional to the dose”. The “effect of ferrostatin-1 on the substance's induction of HMOX1” value [1] was “dependent on lipid peroxidation”.
